Read-outs that look alike come from different tables or passages of the source.

What all share (experiment): Cysteine liganding, probe competition
Format in all cases: binding

In one test the target is T1, UniProt Q7Z3V4 (Homo sapiens, UniProt Q7Z3V4).
T1 construct: 200 μL of lysate containing 5 mg/ml proteome was treated with 2 μL of 100× compound stock; endogenous in cells
T1 sequence (Q7Z3V4 1-1068): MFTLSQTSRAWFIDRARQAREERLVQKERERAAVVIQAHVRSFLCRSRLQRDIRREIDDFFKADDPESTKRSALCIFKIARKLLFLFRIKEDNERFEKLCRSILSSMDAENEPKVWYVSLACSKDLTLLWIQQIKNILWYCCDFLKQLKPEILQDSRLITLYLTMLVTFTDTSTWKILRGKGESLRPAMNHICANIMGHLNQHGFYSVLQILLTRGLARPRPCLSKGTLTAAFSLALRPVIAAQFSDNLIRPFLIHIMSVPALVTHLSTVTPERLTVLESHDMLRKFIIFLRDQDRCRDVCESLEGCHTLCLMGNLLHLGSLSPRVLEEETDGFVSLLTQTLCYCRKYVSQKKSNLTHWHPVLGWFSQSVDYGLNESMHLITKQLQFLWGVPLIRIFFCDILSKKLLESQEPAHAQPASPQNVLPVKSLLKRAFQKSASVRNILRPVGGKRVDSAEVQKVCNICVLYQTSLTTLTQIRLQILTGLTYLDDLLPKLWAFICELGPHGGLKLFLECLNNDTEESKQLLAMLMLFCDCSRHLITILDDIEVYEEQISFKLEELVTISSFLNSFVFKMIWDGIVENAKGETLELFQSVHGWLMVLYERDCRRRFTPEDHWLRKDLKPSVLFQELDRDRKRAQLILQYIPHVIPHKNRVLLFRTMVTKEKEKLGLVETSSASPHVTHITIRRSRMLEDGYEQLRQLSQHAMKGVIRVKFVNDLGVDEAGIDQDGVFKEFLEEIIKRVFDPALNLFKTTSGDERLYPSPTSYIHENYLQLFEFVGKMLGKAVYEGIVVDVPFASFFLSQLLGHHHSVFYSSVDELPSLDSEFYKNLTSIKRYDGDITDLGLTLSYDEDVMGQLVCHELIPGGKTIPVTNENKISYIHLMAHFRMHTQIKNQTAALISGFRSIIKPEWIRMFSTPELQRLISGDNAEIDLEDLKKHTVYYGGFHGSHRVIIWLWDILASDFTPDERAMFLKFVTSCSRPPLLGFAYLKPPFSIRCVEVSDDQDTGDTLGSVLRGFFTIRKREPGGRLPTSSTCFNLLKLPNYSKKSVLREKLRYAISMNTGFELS
The source says: (§1) The following 96-well sample prep protocol was used for sample preparation.

The target in the next test is T2, UniProt Q6AZZ1 (Homo sapiens, UniProt Q6AZZ1).
T2 construct: 200 μL of lysate containing 5 mg/ml proteome was treated with 2 μL of 100× compound stock; endogenous in cells
T2 sequence (Q6AZZ1 1-485): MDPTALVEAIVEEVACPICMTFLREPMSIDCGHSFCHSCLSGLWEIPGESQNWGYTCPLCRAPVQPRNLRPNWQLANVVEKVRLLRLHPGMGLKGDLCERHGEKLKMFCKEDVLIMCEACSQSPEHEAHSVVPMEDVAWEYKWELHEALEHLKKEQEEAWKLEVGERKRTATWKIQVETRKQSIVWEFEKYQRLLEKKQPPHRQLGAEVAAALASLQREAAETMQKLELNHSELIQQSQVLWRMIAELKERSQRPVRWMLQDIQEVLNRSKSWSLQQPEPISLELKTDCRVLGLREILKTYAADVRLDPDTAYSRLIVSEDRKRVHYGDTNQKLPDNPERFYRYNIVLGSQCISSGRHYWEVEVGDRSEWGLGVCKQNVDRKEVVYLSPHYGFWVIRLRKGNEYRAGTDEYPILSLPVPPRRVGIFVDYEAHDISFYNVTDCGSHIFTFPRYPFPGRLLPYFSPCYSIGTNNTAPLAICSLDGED
From the text: as §1

The next test has as its target T3, UniProt Q6PJ21 (Homo sapiens, UniProt Q6PJ21).
T3 construct: 200 μL of lysate containing 5 mg/ml proteome was treated with 2 μL of 100× compound stock; endogenous in cells
T3 sequence (Q6PJ21 1-355): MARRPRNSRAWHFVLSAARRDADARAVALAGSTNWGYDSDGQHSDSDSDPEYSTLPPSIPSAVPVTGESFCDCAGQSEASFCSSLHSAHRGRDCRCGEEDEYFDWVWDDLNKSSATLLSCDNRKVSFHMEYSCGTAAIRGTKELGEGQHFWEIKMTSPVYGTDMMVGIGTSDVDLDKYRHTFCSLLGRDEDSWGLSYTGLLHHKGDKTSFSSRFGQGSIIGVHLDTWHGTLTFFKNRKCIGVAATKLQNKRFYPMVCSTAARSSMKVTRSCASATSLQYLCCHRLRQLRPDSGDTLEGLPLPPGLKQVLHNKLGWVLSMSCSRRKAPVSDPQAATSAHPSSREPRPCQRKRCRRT
Particulars: for inhibition at 100 µM / inhibition at 500 µM: read-out: percent_inhibition.
From the text: as §1

Another test has as its target T4, UniProt Q6ZTA4 (Homo sapiens, UniProt Q6ZTA4).
T4 construct: 200 μL of lysate containing 5 mg/ml proteome was treated with 2 μL of 100× compound stock; endogenous in cells
From the text: as §1

The target of the next test is T5, UniProt Q5W0B1 (Homo sapiens, UniProt Q5W0B1).
T5 construct: 200 μL of lysate containing 5 mg/ml proteome was treated with 2 μL of 100× compound stock; endogenous in cells
T5 sequence (Q5W0B1 1-726): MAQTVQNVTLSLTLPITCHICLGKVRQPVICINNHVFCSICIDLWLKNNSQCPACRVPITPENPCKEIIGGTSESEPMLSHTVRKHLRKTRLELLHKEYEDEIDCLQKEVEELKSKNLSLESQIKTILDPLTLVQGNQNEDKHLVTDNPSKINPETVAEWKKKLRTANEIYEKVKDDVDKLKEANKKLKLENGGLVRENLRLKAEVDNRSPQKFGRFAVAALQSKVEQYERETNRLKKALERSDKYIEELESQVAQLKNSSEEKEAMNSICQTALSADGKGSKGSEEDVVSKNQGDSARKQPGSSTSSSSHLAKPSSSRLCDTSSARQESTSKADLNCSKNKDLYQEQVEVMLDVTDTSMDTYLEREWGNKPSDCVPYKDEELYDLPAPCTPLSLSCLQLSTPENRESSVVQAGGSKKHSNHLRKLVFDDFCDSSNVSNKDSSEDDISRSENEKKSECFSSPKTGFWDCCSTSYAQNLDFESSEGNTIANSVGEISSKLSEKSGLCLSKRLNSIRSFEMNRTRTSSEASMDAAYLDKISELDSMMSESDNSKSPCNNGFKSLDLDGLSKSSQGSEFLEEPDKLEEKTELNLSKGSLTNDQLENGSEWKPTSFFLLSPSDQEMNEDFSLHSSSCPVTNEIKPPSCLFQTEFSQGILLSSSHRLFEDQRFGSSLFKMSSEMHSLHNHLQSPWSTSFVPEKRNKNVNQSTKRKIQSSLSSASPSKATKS
From the text: as §1

[1] abbreviates: read-out: KB02_500 uM_percent_inhibition.
The mark [2] stands for this setting: 500 uM, read-out: percent_inhibition.
Setting [3] is: read-out: KB05_500 uM_percent_inhibition.

T4 sequence (Q6ZTA4 whole entry, change not shown): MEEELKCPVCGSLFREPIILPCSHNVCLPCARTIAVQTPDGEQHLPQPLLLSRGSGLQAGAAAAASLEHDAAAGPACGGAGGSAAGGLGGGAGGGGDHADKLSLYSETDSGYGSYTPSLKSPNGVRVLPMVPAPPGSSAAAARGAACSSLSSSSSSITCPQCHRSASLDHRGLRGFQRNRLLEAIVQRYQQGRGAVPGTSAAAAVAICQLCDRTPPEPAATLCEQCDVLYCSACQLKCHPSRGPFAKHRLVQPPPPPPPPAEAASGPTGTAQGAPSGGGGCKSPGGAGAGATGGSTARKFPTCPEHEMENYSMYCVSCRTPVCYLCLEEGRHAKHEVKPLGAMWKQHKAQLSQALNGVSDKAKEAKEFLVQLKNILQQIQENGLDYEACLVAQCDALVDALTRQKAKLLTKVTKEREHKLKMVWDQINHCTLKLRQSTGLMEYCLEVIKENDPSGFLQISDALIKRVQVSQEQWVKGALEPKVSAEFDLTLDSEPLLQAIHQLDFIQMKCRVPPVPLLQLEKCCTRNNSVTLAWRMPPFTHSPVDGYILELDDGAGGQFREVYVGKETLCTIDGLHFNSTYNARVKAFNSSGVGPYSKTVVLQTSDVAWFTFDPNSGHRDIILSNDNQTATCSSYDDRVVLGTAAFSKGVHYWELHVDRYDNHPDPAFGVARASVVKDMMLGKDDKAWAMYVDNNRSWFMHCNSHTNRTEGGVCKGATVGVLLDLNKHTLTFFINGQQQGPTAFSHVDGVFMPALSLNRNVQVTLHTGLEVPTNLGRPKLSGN

With `COc1ccc2c(c1)CCCN2C(=O)CCl` [KB02], the inhibition at 100 µM on UniProt Q7Z3V4 (100 uM, read-out: KB02_100 uM_percent_inhibition) amounted to 42%; at UniProt Q6PJ21 (100 uM), 5%; on UniProt Q5W0B1 (100 uM, read-out: percent_inhibition), 17%. Also, the inhibition at 500 µM on UniProt Q7Z3V4 (500 uM, read-out: KB02_500 uM_percent_inhibition) was 86%; at UniProt Q6AZZ1 (setting [1]), 44%; at UniProt Q6PJ21 (500 uM), 8%; on UniProt Q6ZTA4 (setting [1]), 44%; on UniProt Q5W0B1 (setting [2]), 54%.

For `C=CC(=O)N(c1ccccc1)c1ccc(Br)cc1` [KB05], the inhibition at 100 µM at UniProt Q7Z3V4 (100 uM, read-out: KB05_100 uM_percent_inhibition) was found to be 8%; on UniProt Q6PJ21 (100 uM), 4%. Besides, the inhibition at 500 µM worked out at 64% at UniProt Q7Z3V4 (500 uM, read-out: KB05_500 uM_percent_inhibition); 36% on UniProt Q6AZZ1 (setting [3]); 30% on UniProt Q6PJ21 (500 uM); 37% at UniProt Q6ZTA4 (setting [3]); 48% at UniProt Q5W0B1 (setting [2]).

`O=C(CCl)Nc1cc(C(F)(F)F)cc(C(F)(F)F)c1` [KBO3]: the “KB03_100 uM_percent_inhibition” value on UniProt Q7Z3V4 (100 uM) was 33%. Also, the “KB03_500 uM_percent_inhibition” value on UniProt Q7Z3V4 (500 uM) turned out to be 56%; on UniProt Q6AZZ1 (500 uM), 18%; at UniProt Q6ZTA4 (500 uM), 6%. Further, the figures for the percent_inhibition at UniProt Q6PJ21 (100 uM), on UniProt Q6PJ21 (500 uM) and at UniProt Q5W0B1 (500 uM) were 25%, 52% and 28%, respectively.

These data come from patent publication US20200239530A1, “COMPOUNDS AND METHODS OF MODULATING PROTEIN DEGRADATION” (Vividion Therapeutics, Inc., priority 2017, published 2020).
